Laboratory results from patent publication US9273084B2, “Moenomycin analogs, methods of synthesis, and uses thereof” (priority 2012, dated 2016).

What was measured:
Assay type in all cases: cell-based
S. pneumoniae 6303 = assay: MIC assay, 96 well broth dilution with MTT staining; details: TSB containing 5% sheep blood, 35-37° C., 20 h
Method: (§1) A 96 well plate with 100 μL test medium in all wells was prepared by handheld multipipettor. A stock solution of the antibiotic or compound in DMSO (0.05˜10 mg/mL, 5 μL) and the same medium (95 μL) were put together into column one, where the compound concentration doubled the highest one to be tested. Two columns were necessary for each compound to check the reproducibility. The compound was diluted by adding 100 μL from column one to column two with a 50% volume mix done three times; diluting serially across the plate was continued.
(§2) The day before the assay was scheduled to be run, strains were suspended in the test media (Brain Heart Infusion (BHI) containing 0.1% casamino acids for S. aureus, S. epidermidis, and E. faecalis, Trypticase Soy Broth (TSB) containing 5% sheep blood for S. pneumoniae, and Lysogeny Broth (LB) for E. coli) and incubated overnight at 35-37° C. The suspension was diluted with the same media to 1%, 100 μL of which was added to each well of the MIC plate. The MIC plate was incubated at 35-37° C. for 20 h. A thiazolyl blue tetrazolium bromide (MTT) solution (1 mg/mL-water, 50 μL) was added into each well and the resulting MIC plate was incubated at 35-37° C. for a few hours to stain wells in which cell proliferated. Growth is also visible as any turbidity in wells.

S. pneumoniae #1629 = assay: as above; details: TSB containing 5% sheep blood, 35-37° C., 20 h
Method: as §1, §2

S. aureus 13709 = assay: as above; design: unit not given beside the values; details: BHI containing 0.1% casamino acids, 35-37° C., 20 h
Method: as §1, §2

E. coli MG1655 = assay: as above; design: unit not given beside the values; details: LB, 35-37° C., 20 h
Method: as §1, §2

S. aureus 25923 = assay: as above; design: unit not given beside the values; details: S. aureus 25923 (second strain line); BHI containing 0.1% casamino acids; 35-37° C., 20 h
Method: as §1, §2

E. coli NR698 = tested on: E. coli NR698; design: unit not given beside the values; details: LB, 35-37° C., 20 h
Method: as §1, §2

E. faecalis 29212 = assay: MIC assay, 96 well broth dilution with MTT staining; design: unit not given beside the values; details: BHI containing 0.1% casamino acids, 35-37° C., 20 h
Method: as §1, §2

E. faecalis 33186 = assay: as above; design: unit not given beside the values; details: BHI containing 0.1% casamino acids, 35-37° C., 20 h
Method: as §1, §2

[1] = S. aureus 13709 (first strain line)
[2] = S. aureus 13709 (third strain line)

Question: How did the MIC (S. pneumoniae 6303) turn out when CC(=O)NC1C(OC2C(COC3OC(CO)C(O)C(O)C3O)OC(OC3C(OP(=O)(O)OCC(OCC=C(C)CCC=C(C)CCC=C(C)CCC=C(C)C)C(=O)O)OC(C(N)=O)C(C)(O)C3OC(N)=O)C(NC(C)=O)C2O)OC(C)C(OC2OC(C(=O)NC3=C(O)CCC3=O)C(O)C(O)C2O)C1O.N [1b, N1-[(2-Hydroxy-5-oxo-cyclopenten-1-yl)-(5S)-β-D-galactopyranuronamide]-(1→4)-2-acetamide-2,6-dideoxy-β-D-gluopyranosyl-(1→4)-[β-D-glucopyranosyl-(1→6)]-2-acetamido-2-deoxy-β-D-glucopyranosyl)-(1→2)-3-O-carbamoyl-1-O—{[(R)-2-carboxy-2-((2Z,6E,10E)-3,7,11,15-tetramethyl-hexadeca-2,6,10,14-tetraen-1-yloxy)ethoxy]hydroxyphosphoryl}-4-C-methyl-α-D-glucopyranuronamide] was run?
Answer: The MIC was 2.0.

Question: And the MIC (S. pneumoniae #1629)?
Answer: The MIC was 3.9.

Question: What about the MIC (S. aureus 13709; [1]) of the same molecule?
Answer: The MIC was 3.9.

Question: What about the MIC (S. aureus 13709; [2]) of the same molecule?
Answer: Its MIC is 2.0.

Question: What about the MIC (E. coli MG1655) of the same molecule?
Answer: Its MIC is 63.

Question: And the MIC (S. aureus 25923)?
Answer: Its MIC is 3.9.

Question: What about the MIC (E. coli NR698) of the same molecule?
Answer: The MIC was 0.061.

Question: How did the MIC (E. faecalis 29212) turn out when CCCCCCCCCCCCCCCCCCOC(COP(=O)(O)OC1OC(C(N)=O)C(C)(O)C(OC(N)=O)C1OC1OC(COC2OC(CO)C(O)C(O)C2O)C(OC2OC(C)C(OC3OC(C(=O)NC4=C(O)CCC4=O)C(O)C(O)C3O)C(O)C2NC(C)=O)C(O)C1NC(C)=O)C(=O)O.N [1e, N1-[(2-Hydroxy-5-oxo-cyclopenten-1-yl)-(5S)-β-D-galactopyranuronamide]-(1→4)-2-acetamide-2,6-dideoxy-β-D-gluopyranosyl-(1→4)-[β-D-glucopyranosyl-(1→6)]-2-acetamido-2-deoxy-β-D-glucopyranosyl)-(1→2)-3-O-carbamoyl-1-O—{[(R)-2-carboxy-2-(octadecan-1-yloxy)ethoxy]hydroxyphosphoryl}-4-C-methyl-α-D-glucopyranuronamide] was run?
Answer: The MIC was 0.49.

Question: What about the MIC (S. aureus 13709; [1]) of the same molecule?
Answer: Its MIC is 2.0.

Question: And the MIC (S. aureus 13709; [2])?
Answer: Its MIC is 0.98.

Question: And the MIC (E. coli MG1655)?
Answer: Its MIC is 63.

Question: And the MIC (S. aureus 25923)?
Answer: Its MIC is 0.98.

Question: And the MIC (E. faecalis 33186)?
Answer: Its MIC is 0.98.

Question: And the MIC (E. coli NR698)?
Answer: Its MIC is 0.0024.

Question: With CC(=O)NC1C(OC2C(COC3OC(CO)C(O)C(O)C3O)OC(OC3C(OP(=O)(O)OCC(OCc4cccc(OCc5cccc(-c6cccc(OCc7cccc(-c8ccccc8)c7)c6)c5)c4)C(=O)O)OC(C(N)=O)C(C)(O)C3OC(N)=O)C(NC(C)=O)C2O)OC(C)C(OC2OC(C(=O)NC3=C(O)CCC3=O)C(O)C(O)C2O)C1O.N [1h, N1-[(2-Hydroxy-5-oxo-cyclopenten-1-yl)-(5S)-β-D-galactopyranuronamide]-(1→4)-2-acetamide-2,6-dideoxy-β-D-gluopyranosyl-(1→4)-[β-D-glucopyranosyl-(1→6)]-2-acetamido-2-deoxy-β-D-glucopyranosyl)-(1→2)-3-O-carbamoyl-1-O—{[(R)-2-carboxy-2-(3-((3′-([1,1′-biphenyl]-3-ylmethoxy)-[1,1′-biphenyl]-3-yl)methoxy)phenylmethan-1-yloxy)ethoxy]hydroxyphosphoryl}-4-C-methyl-α-D-glucopyranuronamide] as the molecule, how does the MIC (S. pneumoniae 6303) read?
Answer: The MIC was 0.98.

Question: What about the MIC (S. pneumoniae #1629) of the same molecule?
Answer: Its MIC is 2.0.

Question: And the MIC (E. faecalis 29212)?
Answer: The MIC was 0.39.

Question: What about the MIC (S. aureus 13709; [1]) of the same molecule?
Answer: Its MIC is 0.39.

Question: And the MIC (S. aureus 13709; [2])?
Answer: Its MIC is 0.20.

Question: And the MIC (E. coli MG1655)?
Answer: The MIC was 125.

Question: What about the MIC (S. aureus 25923) of the same molecule?
Answer: The MIC was 0.20.

Question: And the MIC (E. faecalis 33186)?
Answer: The MIC was 0.78.

Question: What about the MIC (E. coli NR698) of the same molecule?
Answer: Its MIC is 0.039.
